Test results as given in patent US20220288069A1, “INHIBITORS OF TYROSINE KINASE” (BridGene Biosciences, Inc., priority 2019, published 2022).

Key:
[1] = test system: THP−1; assay: Cell viability assay (CellTiter-Glo), THP-1; assay type: cell-based; conditions: THP-1 cells, 72 hr; for GI50: Homo sapiens
Procedure: (§1) Cell viability assay was performed based on the following brief procedures. Cells were plated at the density of 5K/well with volume of […] in 96-well white plate and clear bottom plates. 20 μL of veh. or compound was added at proper concentration to the well. The final volume is 200 μL, with final conc. of DMSO32 0.1%, 11 points, triplicates. The cells were then treated at 37° C. in the TC incubator for 72 hr. Equal volume (200 μL) of CellTiter-Glo reagent (Promega) was added to the well and protect from light at room temperature for 15 min. The chemiluminicent was measured with EnSight (Perkin Elmer). GraphPad Prism non-linear regression, Log[inhibitor] response with four parameters were used to calculate GI50.

[2] = test system: Kasumi−1; assay: Cell viability assay (CellTiter-Glo), Kasumi-1; assay type: cell-based; conditions: Homo sapiens, Kasumi-1 cells, 72 hr
Procedure: as §1

[3] = test system: MV4−11; assay: Cell viability assay (CellTiter-Glo), MV4-11; assay type: cell-based; conditions: Homo sapiens, MV4-11 cells, 72 hr
Procedure: as §1

[4] = target: T1, FLT3 (Homo sapiens, UniProt P36888); assay: Caliper mobility shift kinase inhibition assay, FLT3; assay type: biochemical; conditions: recombinant kinase; enzyme 0.1 nM, ATP 95 μM, incubation 3 hr
T1 construct: purchased ThermoFisher PV3182
T1 sequence (P36888 27-993): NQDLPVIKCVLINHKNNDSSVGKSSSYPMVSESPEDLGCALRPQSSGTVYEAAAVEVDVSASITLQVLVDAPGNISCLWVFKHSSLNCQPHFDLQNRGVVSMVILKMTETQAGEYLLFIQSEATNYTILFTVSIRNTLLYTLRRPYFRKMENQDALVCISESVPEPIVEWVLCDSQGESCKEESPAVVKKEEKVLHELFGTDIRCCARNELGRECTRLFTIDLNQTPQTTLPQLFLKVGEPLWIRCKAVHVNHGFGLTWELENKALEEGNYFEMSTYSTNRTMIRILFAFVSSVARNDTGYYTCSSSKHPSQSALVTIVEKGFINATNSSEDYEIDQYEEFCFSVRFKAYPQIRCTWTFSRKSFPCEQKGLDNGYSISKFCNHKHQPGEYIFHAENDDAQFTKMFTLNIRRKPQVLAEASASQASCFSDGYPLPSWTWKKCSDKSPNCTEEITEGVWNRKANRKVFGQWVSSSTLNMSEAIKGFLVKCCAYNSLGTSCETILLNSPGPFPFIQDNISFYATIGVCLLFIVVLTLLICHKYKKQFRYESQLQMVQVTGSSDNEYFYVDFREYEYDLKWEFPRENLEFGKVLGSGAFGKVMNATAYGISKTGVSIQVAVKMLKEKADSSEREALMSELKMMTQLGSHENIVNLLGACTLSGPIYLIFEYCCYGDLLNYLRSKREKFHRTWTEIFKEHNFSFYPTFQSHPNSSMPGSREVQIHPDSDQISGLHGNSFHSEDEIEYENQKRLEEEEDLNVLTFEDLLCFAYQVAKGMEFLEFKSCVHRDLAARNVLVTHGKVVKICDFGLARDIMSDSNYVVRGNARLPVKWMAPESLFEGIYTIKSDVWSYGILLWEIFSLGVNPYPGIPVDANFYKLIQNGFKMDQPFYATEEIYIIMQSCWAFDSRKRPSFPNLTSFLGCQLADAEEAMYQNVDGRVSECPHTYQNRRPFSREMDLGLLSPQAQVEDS
Procedure: Compounds' inhibition of recombinant kinases (FGR, FLT3, FMS, KIT, or RON) was measured using Caliper mobility shift assay, which is based on the difference in capillary electrophoresis mobility of a fluorescent-tagged peptide as a result of a phosphorylation by the kinase under study. Reactions were started by the addition of various concentrations of a compound (originally in DMSO solution) to a kinase solution in assay buffer followed by addition of a mixture of ATP and a fluorescent-tagged peptide substrate in assay buffer. Concentrations of the enzyme, ATP and the peptide were pre-optimized so that 15% substrate conversion to ensure initial velocity measurements. After incubation for 3 hours at room temperature, the kinase reaction was quenched by the addition of a concentrated EDTA solution before analysis on a LabChip EZ Reader II to yield percentage inhibition by comparing to the DMSO control.
Table 2 below summarizes the assay conditions for the characterization of the kinase inhibition properties of the disclosed compounds.

Structure (SMILES)	GI50 [1]	GI50 [3]	IC50 [4]	THP−1 GI50 [1]	GI50 [2]
Cc1cc(Nc2cc(NCCNC(=O)[C@@H]3COCCN3C(=O)/C=C/CN(C)C)nc(Nc3ccc(CC#N)cc3)n2)n[nH]1 [Compound 2]	≥ 1 µM	0.01 to 0.1 µM	< 0.01 µM	–	0.1 to 1 µM
C=CC(=O)N(C)[C@@H](C)C(=O)NCCNc1cc(Nc2ncc(C3CCC3)s2)nc(CC)n1 [Compound 6, (2S)—N-[2-[[6-[(5-cyclobutylthiazol-2-yl)amino]-2-ethyl-pyrimidin-4-yl]amino]ethyl]-2-[methyl(prop-2-enoyl)amino]propanamide]	0.01 to 0.1 µM	< 0.01 µM	< 0.01 µM	–	< 0.01 µM
CCc1nc(NCCNC(=O)[C@H](C)N(C)C(=O)/C=C/CN(C)C)cc(Nc2ncc(C3CCC3)s2)n1 [Compound 8, (E)-N-[(1S)-2-[2-[[6-[(5-cyclobutylthiazol-2-yl)amino]-2-ethyl-pyrimidin-4-yl]amino]ethylamino]-1-methyl-2-oxo-ethyl]-4-(dimethylamino)-N-methyl-but-2-enamide]	≥ 1 µM	< 0.01 µM	< 0.01 µM	–	0.1 to 1 µM
C=CC(=O)N1CCOC[C@H]1C(=O)NCCOc1cc(Nc2ncc(-c3ccccc3)s2)nc(C)n1 [Compound 14, (3S)—N-[2-[2-methyl-6-[(5-phenylthiazol-2-yl)amino]pyrimidin-4-yl]oxyethyl]-4-prop-2-enoyl-morpholine-3-carboxamide]	–	–	< 0.01 µM	–	–
C=CC(=O)N1CCC[C@H]1C(=O)N[C@H]1CCN(c2cc(Nc3ncc(-c4ccncc4)s3)nc(C)n2)C1 [Compound 21, (2S)—N-[(3S)-1-[2-methyl-6-[[5-(4-pyridyl)thiazol-2-yl]amino]pyrimidin-4-yl]pyrrolidin-3-yl]-1-prop-2-enoyl-pyrrolidine-2-carboxamide]	–	–	< 0.01 µM	–	–
CCC(=O)N(C)[C@@H](C)C(=O)NCCNC(=O)c1c[nH]c(/C=C2\C(=O)Nc3ccc(F)cc32)c1C [Compound 24, 5-[(5-fluoro-2-oxo-indolin-3-ylidene)methyl]-4-methyl-N-[2-[[(2S)-2-[methyl(propanoyl)amino]propanoyl]amino]ethyl]-1H-pyrrole-3-carboxamide]	–	0.01 to 0.1 µM	0.01 to 0.1 µM	=	–
C=CC(=O)N(C)[C@@H](C)C(=O)NC[C@@H]1CCc2c([nH]c(/C=C3\C(=O)Nc4ccc(F)cc43)c2C)C1 [Compound 28, (2S)—N-[[(6R)-2-[(5-fluoro-2-oxo-indolin-3-ylidene)methyl]-3-methyl-4,5,6,7-tetrahydro-1H-indol-6-yl]methyl]-2-[methyl(prop-2-enoyl)amino]propanamide]	≥ 1 µM	< 0.01 µM	< 0.01 µM	–	–
Cc1c(/C=C2\C(=O)Nc3ccc(F)cc32)[nH]c2c1CC[C@@H](CNC(=O)[C@H](C)N(C)C(=O)/C=C/CN(C)C)C2 [Compound 30, (E)-4-(dimethylamino)-N-[(1S)-2-[[(6R)-2-[(Z)-(5-fluoro-2-oxo-indolin-3-ylidene)methyl]-3-methyl-4,5,6,7-tetrahydro-1H-indol-6-yl]methylamino]-1-methyl-2-oxo-ethyl]-N-methyl-but-2-enamide]	≥ 1 µM	< 0.01 µM	< 0.01 µM	–	–

More lines, main results first:

GI50 [1]	GI50 [3]	IC50 [4]	THP−1 GI50 [1]	Structure (SMILES)	GI50 [2]
0.1 to 1 µM	< 0.01 µM	< 0.01 µM	–	C=CC(=O)N(C)[C@@H](C)C(=O)NCCOc1cc(Nc2ncc(C3CCC3)s2)nc(CC)n1 [Compound 7, (2S)—N-[2-[6-[(5-cyclobutylthiazol-2-yl)amino]-2-ethyl-pyrimidin-4-yl]oxyethyl]-2-[methyl(prop-2-enoyl)amino]propanamide]	< 0.01 µM
≥ 1 µM	< 0.01 µM	< 0.01 µM	–	Cc1nc(NCCNC(=O)[C@H](C)N(C)C(=O)/C=C/CN(C)C)cc(Nc2ncc(-c3ccccc3)s2)n1 [Compound 11]	< 0.01 µM
–	–	< 0.01 µM	–	C=CC(=O)N1CCN(C)C[C@H]1C(=O)NCCOc1cc(Nc2ncc(-c3ccccc3)s2)nc(C)n1 [Compound 15, (2S)-4-methyl-N-[2-[2-methyl-6-[(5-phenylthiazol-2-yl)amino]pyrimidin-4-yl]oxyethyl]-1-prop-2-enoyl-piperazine-2-carboxamide]	–
–	–	0.01 to 0.1 µM	–	C/C=C/C(=O)N(C)[C@@H](C)C(=O)NCCOc1cc(Nc2ncc(-c3ccccc3)s2)nc(C)n1 [Compound 16, N-methyl-N-[(1S)-1-methyl-2-[2-[2-methyl-6-[(5-phenylthiazol-2-yl)amino]pyrimidin-4-yl]oxyethylamino]-2-oxoethyl]but-2-enamide]	–
–	–	< 0.01 µM	–	C=CC(=O)N(C)[C@@H](C)C(=O)NCCN(C)c1cc(Nc2ncc(-c3ccncc3)s2)nc(C)n1 [Compound 19, (2S)—N-[2-[methyl-[2-methyl-6-[[5-(4-pyridyl)thiazol-2-yl]amino]pyrimidin-4-yl]amino]ethyl]-2-[methyl(prop-2-enoyl)amino]propanamide]	–
–	–	< 0.01 µM	–	C=CC(=O)N(C)[C@@H](C)C(=O)N[C@H]1CCN(c2cc(Nc3ncc(-c4ccncc4)s3)nc(C)n2)C1 [Compound 20, (2S)-2-[methyl(prop-2-enoyl)amino]-N-[(3S)-1-[2-methyl-6-[[5-(4-pyridyl)thiazol-2-yl]amino]pyrimidin-4-yl]pyrrolidin-3-yl]propanamide]	–
–	–	< 0.01 µM	–	C=CC(=O)N1CCC[C@H]1C(=O)NCCNc1cc(Nc2ncc(-c3ccncc3)s2)nc(C)n1 [Compound 22, (2S)—N-[2-[[2-methyl-6-[[5-(4-pyridyl)thiazol-2-yl]amino]pyrimidin-4-yl]amino]ethyl]-1-prop-2-enoyl-pyrrolidine-2-carboxamide]	–
≥ 1 µM	< 0.01 µM	< 0.01 µM	–	C=CC(=O)N(C)[C@@H](C)C(=O)NCCNC(=O)c1c[nH]c(/C=C2\C(=O)Nc3ccc(F)cc32)c1C [Compound 23, 5-[(5-fluoro-2-oxo-indolin-3-ylidene)methyl]-4-methyl-N-[2-[[(2S)-2-[methyl(prop-2-enoyl)amino]propanoyl]amino]ethyl]-1H-pyrrole-3-carboxamide]	–
≥ 1 µM	< 0.01 µM	< 0.01 µM	–	CC#CC(=O)N(C)[C@@H](C)C(=O)NCCNC(=O)c1c[nH]c(/C=C2\C(=O)Nc3ccc(F)cc32)c1C [Compound 25, N-[2-[[(2S)-2-[but-2-ynoyl(methyl)amino]propanoyl]amino]ethyl]-5-[(5-fluoro-2-oxo-indolin-3-ylidene)methyl]-4-methyl-1H-pyrrole-3-carboxamide]	–
≥ 1 µM	< 0.01 µM	< 0.01 µM	–	C=CC(=O)N(C)[C@@H](C)C(=O)NC[C@H]1CCc2c([nH]c(/C=C3\C(=O)Nc4ccc(F)cc43)c2C)C1 [Compound 27, (2S)—N-[[(6S)-2-[(5-fluoro-2-oxo-indolin-3-ylidene)methyl]-3-methyl-4,5,6,7-tetrahydro-1H-indol-6-yl]methyl]-2-[methyl(prop-2-enoyl)amino]propanamide]	–
≥ 1 µM	< 0.01 µM	< 0.01 µM	–	Cc1c(/C=C2\C(=O)Nc3ccc(F)cc32)[nH]c2c1CC[C@H](CNC(=O)[C@H](C)N(C)C(=O)/C=C/CN(C)C)C2 [Compound 29, (E)-4-(dimethylamino)-N-[(1S)-2-[[(6S)-2-[(Z)-(5-fluoro-2-oxo-indolin-3-ylidene)methyl]-3-methyl-4,5,6,7-tetrahydro-1H-indol-6-yl]methylamino]-1-methyl-2-oxo-ethyl]-N-methyl-but-2-enamide]	–
